Assay results: patent US6096749A, “Pyrrolopyrimidine derivatives having pharmacological activity” (Novartis Corporation, priority 1994, dated 2000)
pIC50: −log10 of the molar value. “And” between values parts separate entries of the source, which are not always exact repeats. Equal values may be shown once. Read-outs that look alike come from different tables or passages of the source.

Columns and labels:
EGF-R ICD = biological target: T1, EGF-R ICD (Homo sapiens, UniProt P00533); assay: Inhibitory action on EGF-R ICD (intracellular domains of the EGF receptor) tyrosine protein kinase, Test A; format: biochemical; conditions: concentration at which inhibition is half the maximum inhibition
T1 construct: recombinant intracellular domains of the EGF-receptor (EGF-R ICD)
T1 sequence (P00533 669-1210 limits assumed): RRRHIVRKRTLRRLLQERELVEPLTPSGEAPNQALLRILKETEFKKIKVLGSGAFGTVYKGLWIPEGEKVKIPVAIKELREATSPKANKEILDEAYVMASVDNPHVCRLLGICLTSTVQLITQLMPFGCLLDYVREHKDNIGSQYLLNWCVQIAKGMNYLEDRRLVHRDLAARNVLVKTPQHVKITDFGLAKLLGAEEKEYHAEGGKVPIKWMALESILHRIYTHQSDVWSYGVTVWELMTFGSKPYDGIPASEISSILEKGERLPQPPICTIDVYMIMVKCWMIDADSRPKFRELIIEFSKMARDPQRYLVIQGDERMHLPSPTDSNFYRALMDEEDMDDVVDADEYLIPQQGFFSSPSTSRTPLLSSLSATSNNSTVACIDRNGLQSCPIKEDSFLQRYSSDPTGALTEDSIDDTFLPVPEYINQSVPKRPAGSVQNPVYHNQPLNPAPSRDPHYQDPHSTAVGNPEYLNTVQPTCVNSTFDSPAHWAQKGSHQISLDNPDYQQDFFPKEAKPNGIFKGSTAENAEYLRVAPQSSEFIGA
From the text: Test A) Inhibitory action on EGF-R ICD (ICD=intracellular domains): The test system is described above. The result is given as IC50 in μM (concentration of active ingredient at which inhibition is half the maximum inhibition).
The test system is described above. The result is given as IC50 in μM (concentration of active ingredient at which inhibition is half the maximum inhibition).

[1] = system: BALB/c mouse keratinocyte cell line (MK cells); assay: Inhibitory action on the growth of MK cells (BALB/MK), Test B; format: cell-based; conditions: 72 h, three days incubation, methylene blue staining, Examples 16 to 22
Description: The test compounds (dissolved in DMSO) are added in a series of concentrations (dilution series), so that the final concentration of DMSO is not grater than 1% (v/v). […] The growth of the MK cells is measured by means of methylene blue staining: after incubation, the cells are fixed with glutaraldehyde, washed with water and stained with 0.05% methylene blue. […] IC50 values are calculated by means of a computer-assisted system using the formula:
IC50 =(ODtest -ODstart)/(ODcontrol
Test B) Inhibitory action on the growth of MK cells: The test system is described in detail above. The result is given as IC50 in μM (concentration of active ingredient at which inhibition is half the maximum inhibition).

[2] = Examples 16 to 22, read-out: IC50 (Test A: inhibitory action on EGF-R ICD)
[3] = Example 32, table 3, read-out: IC50 (inhibitory action on the intracellular domains of EGF-R (ICD))

pIC50 (EGF-R ICD; [2])	pIC50 (EGF-R ICD; [3])	SMILES	pIC50 [1]
6.25	–	Cc1[nH]c2ncnc(Nc3ccc(F)cc3)c2c1C [Example 20, 4-(p-Fluoroanilino)-5,6-dimethyl-7H-pyrrolo[2,3-d]pyrimidine]	4.88
6.96	–	Cc1ccc(Nc2ncnc3[nH]c4c(c23)CCCC4)cc1 [Example 22, 4-(4-Methylanilino)-5,6-tetramethylene-7H-pyrrolo[2,3-d]pyrimidine]	4.86
–	7.48	COc1ccc(OC)c(-c2cc3c(Nc4cccc(Cl)c4)ncnc3[nH]2)c1 [Example 27, 4-(m-Chloroanilino)-6-(2,5-dimethoxyphenyl)-7H-pyrrolo[2,3-d]-pyrimidine]	–
–	7.34	Brc1cccc(Nc2ncnc3[nH]c4c(c23)CCCC4)c1 [Example 8, 4-(m-Bromoanilino)-5,6-tetramethylene-7H-pyrrolo[2,3-d]pyrimidine]	–
5.80	–	Cc1[nH]c2ncnc(Nc3ccccc3F)c2c1C [Example 19, 4-(o-Fluoroanilino)-5,6-dimethyl-7H-pyrrolo[2,3-d]pyrimidine]	4.31
–	5.75	COc1cccc(-c2cc3c(Nc4cccc(Cl)c4)ncnc3[nH]2)c1 [Example 30, 4-(m-Chloroanilino)-6-(3-methoxyphenyl)-7H-pyrrolo[2,3-d]pyrimidine]	–
5.72	–	Cc1ccc(Nc2ncnc3[nH]c(C)c(C)c23)cc1 [Example 17, 4-(p-Methylanilino)-5,6-dimethyl-7H-pyrrolo[2,3-d]pyrimidine]	4.61
–	6.26	Cc1[nH]c2ncnc(Nc3cccc(F)c3)c2c1C [Example 3, 4-(m-Fluoroanilino)-5,6-dimethyl-7H-pyrrolo[2,3-d]pyrimidine]	–
–	7.82	COc1ccc(-c2cc3c(Nc4cccc(Cl)c4)ncnc3[nH]2)cc1 [Example 26, 4(m-Chloroanilino)-6-(4-methoxyphenyl)-7H-pyrrolo[2,3-d]pyrimidine]	–
–	7.02 and 7.48	Brc1cccc(Nc2ncnc3[nH]c(-c4ccccc4)c(-c4ccccc4)c23)c1 [Example 13, 4-(m-Bromoanilino)-5,6-diphenyl-7H-pyrrolo[2,3-d]pyrimidine]	–
–	6.37	COc1ccc(-c2[nH]c3ncnc(Nc4cccc(Cl)c4)c3c2C)cc1 [Example 29, 4-(m-Chloroanilino)-5-methyl-6-(4-methoxyphenyl)-7H-pyrrolo[2,3-d]-pyrimidine]	–
–	6.70	Fc1cccc(Nc2ncnc3[nH]c4c(c23)CCCC4)c1 [Example 9, 4-(m-Fluoroanilino)-5,6-tetramethylene-7H-pyrrolo[2,3-d]pyrimidine]	–
–	7.60	Cc1[nH]c2ncnc(Nc3cccc(Br)c3)c2c1C [Example 2, 4-(m-Bromoanilino)-5,6-dimethyl-7H-pyrrolo[2,3-d]pyrimidine]	–
7.15	–	Cc1[nH]c2ncnc(Nc3ccc(Cl)c(Cl)c3)c2c1C [Example 18, 4-(m,p-Dichloroanilino)-5,6-dimethyl-7H-pyrrolo[2,3.d]pyrimidine]	4.46
–	7.89	Clc1cccc(Nc2ncnc3[nH]c(-c4ccccc4)cc23)c1 [Example 28, 4-(m-Chloroanilino)-6-(phenyl)-7H-pyrrolo[2,3-d]pyrimidine]	–
–	6.44	FC(F)(F)c1cccc(Nc2ncnc3[nH]c4c(c23)CCCC4)c1 [Example 14, 4-(m-Trifluoromethylanilino)-5,6-tetramethylene-7H-pyrrolo[2,3-d]-pyrimidine]	–
–	6.09	Cc1cccc(Nc2ncnc3[nH]c4c(c23)CCCC4)c1 [Example 10, 4-(m-Methylanilino)-5,6-tetramethylene-7H-pyrrolo[2,3-d]pyrimidine]	–
–	6.77	Cc1[nH]c2ncnc(Nc3cc(Cl)cc(Cl)c3)c2c1C [Example 4, 4-(m,m-Dichloroanilino)-5,6-dimethyl-7H-pyrrolo[2,3-d]pyrimidine]	–
–	6.46	COc1cccc(Nc2ncnc3[nH]c4c(c23)CCCC4)c1 [Example 11, 4-(m-Methoxyanilino)-5,6-tetramethylene-7H-pyrrolo[2,3-d]pyrimidine]	–
–	6.82	Clc1ccc(Nc2ncnc3[nH]c4c(c23)CCCC4)cc1Cl [Example 15, 4-(m,p-Dichloroanilino)-5,6-tetramethylene-7H-pyrrolo[2,3-d]pyrimidine]	–
–	6.24	Cc1cccc(Nc2ncnc3[nH]c(C)c(C)c23)c1 [Example 5, 4-(m-Methylanilino)-5,6-dimethyl-7H-pyrrolo[2,3-d]pyrimidine]	–
–	7.72	COc1ccccc1-c1cc2c(Nc3cccc(Cl)c3)ncnc2[nH]1 [Example 31, 4-(m-Chloroanilino)-6-(2-methoxyphenyl)-7H-pyrrolo[2,3-d]pyrimidine]	–
